Five compounds from patent publication US12138256B2, “Treatment of cardiopulmonary disorders” (Bayer Aktiengesellschaft, priority 2021, dated 2024) can be followed below.

Assay [1] concerns thromboxane analog U46619 induced PAH in minipigs. The experiment in a line: PAH minipig model: comparison with and on top of standard of care (bosentan, sildenafil, riociguat). Conditions: for BP decrease % / PAP decrease %: % change per animal; for effects on PAP and BP: bosentan 1 mg/kg, sildenafil 300 μg/kg/h, riociguat 3 μg/kg/h systemically, comparative example 11 30 and 100 μg/kg inhaled. Format: in vivo, Göttingen minipig. From the text: Efficacy of inhaled comparative example 11 was compared with systemically applied bosentan, sildenafil and riociguat (see FIG. 53a) in the PAH minipig model. […] Therefore inhaled application of comparative example 11 offers clear benefits as systemic effects are avoided, compared to standard of care.

Assay [2] deals with isolated Langendorff-perfused rat heart. The experiment in a line: Isolated perfused heart according to Langendorff: perfusion pressure and wash-out score (C-1.2). Conditions: 100 nmol/l; for Perfusion pressure (%) (timepoint at 20 min) Mean: isolated Langendorff-perfused rat heart; for Perfusion pressure (%) (timepoint at 90 min) Mean: wash-out phase. How it is done:
Male Wistar rats (strain HsdCpb:WU) with a body weight of 200-250 g were anaesthetized with Narcoren® (100 mg/kg). The thorax was opened and the heart was then exposed, excised and connected to a Langendorff apparatus by placing a cannula into the aorta. The heart was perfused retrogradely at 9 ml/min at constant flow with a Krebs-Henseleit buffer solution (gassed with 95% O2 and 5% CO2, pH 7.4, 35° C.; composition in mmol/l: NaCl 118; KCl 3; NaHCO3 22; KH2PO4 1.2; MgSO4 1.2; CaCl2 1.8; Glucose 10; Na pyruvate 2). A pressure transducer registered the perfusion pressure in the perfusion system. The left ventricular pressure (LVP) was measured using a second pressure transducer connected to a water-filled balloon which was inserted into the left ventricle via the left atrium. The end diastolic pressure was initially set to 8 mm Hg by adjusting the volume of the balloon. The hearts were spontaneously beating. The signals from the pressure transducer were amplified, registered by a personal computer (Powerlab Chart software, ADInstruments).
Then the hearts were perfused for a further 120 min without the test substance (wash-out phase). The reversibility of the effect (wash-out score) was calculated as a percentage of the PP recovery after 60 min of washout related to the maximum drop of PP induced by the test compound. The wash-out score obtained in this manner was taken as a measure for the residence time of the test substance at the site of action.

For assay [3], the system named is thromboxane analog U46619 induced PAH in minipigs. The experiment in a line: Haemodynamics (PAP, BP) in the anesthetized thromboxane challenged PAH minipig after inhaled (nebulized) application (C-2.1). Format: in vivo, Göttingen minipig. Here is the method:
Experiments were carried out in anesthetized Göttingen minipigs, anesthetized rats and conscious, telemetrically instrumented dogs. Acute pulmonary hypertension was induced for example by infusion of a thromboxane A2 analogon, by acute hypoxia treatment or hypoxia treatment over a number of weeks and/or by administration of monocrotaline. Test substances were applied via nebulization using the Nebutec® or Aeroneb® Pro nebulizer system, and/or by means of powder and/or solution applicators for experimental intratracheal administration (Liquid MicroSprayer®, Dry Powder Insufflator™, MicroSprayer®, Penn-Century Inc., Wyndmoor, PA, USA) or after solid nebulization inserted into the inspiration arm of the ventilation. Compounds were employed as solids or solutions depending on the molecular structure and the technical possibility depending on the experiment. The haemodynamic signals were recorded and evaluated by means of pressure transducers/amplifiers (Combitransducer B. Braun, Melsungen, Germany or CardioMEMS Inc., Atlanta, GA, USA) and Ponemah® or CardioMems® as data aquisition software. After long-term experiments (for example monocrotaline rat), it is also possible to carry out a histological evaluation.
Healthy Gottingen Minipigs® Ellegaard (Ellegaard, Denmark) of both sexes and having a weight of 2-6 kg were used. The animals were sedated by i.m. administration of about 25 mg/kg ketamine and about 10 mg/kg azaperone. Anaesthesia was initiated by i.v. administration of about 2 mg/kg ketamine and about 0.3 mg/kg midazolam. Maintenance of anaesthesia was by i.v. administration of about 7.5-30 mg/kg/h ketamine and about 1-4 mg/kg/h midazolam (rate of infusion 1-4 ml/kg/h) and about 150 μg/kg/h pancuronium bromide (for example Pancuronium-Actavis). After intubation, the animals were ventilated by the ventilator at a constant respiratory volume (10-12 ml/kg, 35 breaths/min; Avea®, Viasys Healthcare, USA, or Engstrom Carestation, GE Healthcare, Freiburg, Germany) such that an end-tidal CO2 concentration of about 5% was achieved. Ventilation was performed with room air, enriched with about 40% oxygen (normoxia). For the measurement of the haemodynamic parameters such as pulmonary arterial pressure (PAP), blood pressure (BP) and heart rate (HR), catheters were inserted into the carotid artery to measure the blood pressure, and a Swan-Ganz® catheter was introduced in a flow-directed manner via the jugular vein into the pulmonary artery. The haemodynamic signals were recorded and evaluated by means of pressure transducers (Combitransducer, B. Braun, Melsungen, Germany)/amplifiers and Ponemah® as data aquisition software.
After the instruments have been placed into the animals, continuous infusion of a thromboxane A2 analog was initiated to increase the pulmonary arterial pressure. […] D0400, or Cayman Chemical Company, cat. no. 16440), dissolved in physiological saline, were infused to achieve an increase of the mean pulmonary arterial pressure to values of over 25 mmHg. 30 minutes after the start of the infusion, a plateau was reached, and the experiment was started.
The test substances were administered as i.v. infusion or by inhalation. For the preparation of the solution for inhalation, the following procedure was adopted: For an animal having a weight of 4 kg, to prepare the stock solution (300 μg/kg), 1.2 mg of the test compound were weighed out and dissolved in a total volume of 3 ml (1% DMSO, 99% 0.2% strength citric acid solution, 1 N aqueous sodium hydroxide solution to adjust the pH to 8). The solution was then diluted to the concentration employed using 0.2% strength citric acid which had been adjusted to pH 8 beforehand with aqueous sodium hydroxide solution. In each test, 3 ml of the solution of test compound per 4 kg animal were nebulized in the inhalation arm of the respiratory circuit using the Aeroneb® Pro nebulizer system. The mean nebulization time was about 7 min from the start of the nebulization.

The test system of assay [4] is allergen-induced late airway hyperresponsiveness and inflammation in sensitized mice. Nature of the assay: Chronic asthma model: ovalbumin sensitized BALB/c mice, airway hyperresponsiveness and BAL (C-3.3). Format: in vivo, mouse. Conditions: for inhibition at 0.1 mg/kg: Mus musculus, dexamethasone 18 h and 1 h before each Ova challenge, comparative example 11 high dose of 100 μg/kg 2 h before. Here is the method: The study was conducted to investigate whether inhalative treatment with comparative example 11 has a protective effect on the experimentally allergen-induced late airway hyperresponsiveness and inflammation in sensitized mice. Female BALB/c mice were sensitized and boosted with Ovalbumin (Ova) and aluminium hydroxide adjuvant (day 0. 14 and 21) with the exception of the negative control group receiving NaCl. On day 28 and 29. the animals were challenged with Ova aerosol. On day 30, a hyperresponsiveness test followed by bronchoalveolar lavage (BAL) was performed in all animals of all groups. The treatment groups D (10 μg) and E (100 μg) were treated with comparative example 11 inhalationally 2 h before each Ova challenge. Group A and B, the positive and negative control groups, were treated correspondingly with the vehicle. The Ova-sensitized positive control group A should show the full allergic reaction and, in contrast, the sham-sensitized negative control group B should show no allergic response. As a reference group, the animals of group C were treated inhalative with the corticosteroid dexamethasone but—due to its different mechanism of action—18 h and 1 h before each Ova challenge (on day 27, 28 and 29). On day 30, 24 h after Ova challenge in the late allergic phase, lung function—especially RL—was measured in the orotracheally intubated mice and a test on airway hyperresponsiveness was performed (inhalational methacholine provocation in doubling dose steps). […] These inhibitory effects show the successful therapeutic intervention.

Setting [5] is: Sildenafil 300 μg/kg/h systemically applied.
Setting [6] is: Bosentan 1 mg/kg systemically applied.
The mark [7] stands for this setting: inhaled 100 μg/kg, 0 min vs. start inhalation.
Setting [8] is: inhaled 100 μg/kg, 10 min vs. start inhalation.
Where [9] appears, read: inhaled 100 μg/kg, 20 min vs. start inhalation.
Setting [10] is: inhaled 100 μg/kg, 30 min vs. start inhalation.
The mark [11] stands for this setting: inhaled 100 μg/kg, −5 min vs. start inhalation.
[12] abbreviates: inhaled 3μg/kg, 0 min vs. start inhalation.
[13] abbreviates: inhaled 3μg/kg, 10 min vs. start inhalation.
Setting [14] is: inhaled 3μg/kg, 20 min vs. start inhalation.
The mark [15] stands for this setting: inhaled 3μg/kg, 30 min vs. start inhalation.
Setting [16] is: inhaled 3μg/kg, 40 min vs. start inhalation.
[17] abbreviates: inhaled 3μg/kg, 50 min vs. start inhalation.
Setting [18] is: inhaled 3μg/kg, 60 min vs. start inhalation.
The mark [19] stands for this setting: inhaled 3μg/kg, 70 min vs. start inhalation.
The mark [20] stands for this setting: inhaled 3μg/kg, 80 min vs. start inhalation.
Where [21] appears, read: inhaled 3μg/kg, 90 min vs. start inhalation.
Setting [22] is: inhaled 3μg/kg, −5 min vs. start inhalation.

The structures appear in SMILES notation. Values joined by “and” are separate entries in the source; they are usually repeats but may differ in a detail not shown here. Equal values may be shown once. Read-outs that look alike come from different tables or passages of the source.

Regarding `CCCc1nn(C)c2c(=O)[nH]c(-c3cc(S(=O)(=O)N4CCN(C)CC4)ccc3OCC)nc12` [sildenafil, reference compound], in assay [1] (setting [5]), the BP decrease % was −10.6% and −6.1% and −14.5%; the PAP decrease % is −15.3% and −34.3% and −16.1%. For the same compound, in assay [1], the “effects on PAP and BP” value was “decreases in both PAP and BP”.

Regarding `COc1ccccc1Oc1c(NS(=O)(=O)c2ccc(C(C)(C)C)cc2)nc(-c2ncccn2)nc1OCCO` [Bosentan, reference compound], in assay [1] (setting [6]), the BP decrease % is −6.7% and −15.0% and −10.3% and −12.7%; the PAP decrease % is −3.7% and 3.9% and −7.7% and −16.0%. The “effects on PAP and BP” value in assay [1] is reported as “decrease in BP with only minor effects on PAP”.

Take `COC(=O)N(C)c1c(N)nc(-c2nn(Cc3ccccc3F)c3ncccc23)nc1N` [Riociguat (comparative example 2)]: the “Wash-out score (%) after 60 min” value in assay [2] was 98.0%. Moreover, in assay [2], the “Perfusion pressure (%) (timepoint at 20 min) Mean” value was determined as 55.4%. Besides, the “Perfusion pressure (%) (timepoint at 90 min) Mean” value in assay [2] was 99.9%. In addition, the “% changes in BP vs baseline” value in assay [3] (setting [7]) was 100% and 102%; in assay [3] (setting [8]), 91% and 86%; in assay [3] (setting [9]) it was 91% and 85%; in assay [3] (setting [10]), 94%; in assay [3] (setting [11]), 100%. The “% changes in PAP vs baseline” value in assay [3] (setting [7]) was 99%; in assay [3] (setting [8]) it was 95% and 92%; in assay [3] (setting [9]), 94% and 90%; in assay [3] (setting [10]) it was 94% and 90%; in assay [3] (setting [11]), 99% and 101%.

In the case of `O=C(O)CCCCN(CCc1ccccc1OCc1ccc(CCc2ccccc2)cc1)Cc1ccc(C(=O)O)cc1` [Cinaciguat (comparative example 1)], the “Wash-out score (%) after 60 min” value in assay [2] is given as 29.5%. The “Perfusion pressure (%) (timepoint at 20 min) Mean” value in assay [2] is given as 62.1%. The “Perfusion pressure (%) (timepoint at 90 min) Mean” value in assay [2] came to 69.3%. Besides, the “% changes in BP vs baseline” value in assay [3] (setting [12]) is 100% and 99%; in assay [3] (setting [13]) it was 91% and 89%; in assay [3] (setting [14]), 76% and 82%; in assay [3] (setting [15]), 74% and 86%; in assay [3] (setting [16]), 73% and 89%; in assay [3] (setting [17]), 82% and 94%. Moreover, the “% changes in BP vs baseline” value in assay [3] (setting [18]) was 88% and 94%; in assay [3] (setting [19]), 100% and 99%; in assay [3] (setting [20]), 103% and 100%; in assay [3] (setting [21]), 105% and 102%; in assay [3] (setting [22]) it was 100%. Also, the “% changes in PAP vs baseline” value was 99% in assay [3] (setting [12]); 101% and 100% in assay [3] (setting [13]); 99% and 98% in assay [3] (setting [14]); 98% in assay [3] (setting [15]); 97% and 98% in assay [3] (setting [16]); 97% and 98% in assay [3] (setting [17]). The “% changes in PAP vs baseline” value was 97% and 99% in assay [3] (setting [18]); 97% and 100% in assay [3] (setting [19]); 95% and 98% in assay [3] (setting [20]); 95% and 99% in assay [3] (setting [21]); 100% in assay [3] (setting [22]); 100% and 101% in assay [3] (inhaled 10 μg/kg, 0 min vs. start inhalation). Besides, the “% changes in PAP vs baseline” value in assay [3] (inhaled 10 μg/kg, 10 min vs. start inhalation) was 100%; in assay [3] (inhaled 10 μg/kg, 20 min vs. start inhalation), 96% and 100%; in assay [3] (inhaled 10 μg/kg, 30 min vs. start inhalation) it was 94% and 100%; in assay [3] (inhaled 10 μg/kg, 40 min vs. start inhalation), 95% and 98%; in assay [3] (inhaled 10 μg/kg, 50 min vs. start inhalation), 94% and 96%; in assay [3] (inhaled 10 μg/kg, 60 min vs. start inhalation), 95% and 94%. Also, the “% changes in PAP vs baseline” value is 93% and 94% in assay [3] (inhaled 10 μg/kg, 70 min vs. start inhalation); 94% and 92% in assay [3] (inhaled 10 μg/kg, 80 min vs. start inhalation); 93% and 89% in assay [3] (inhaled 10 μg/kg, 90 min vs. start inhalation); 100% in assay [3] (inhaled 10 μg/kg, −5 min vs. start inhalation).

Turning to `C[C@@H]1C[C@H]2[C@@H]3CCC4=CC(=O)C=C[C@]4(C)[C@@]3(F)[C@@H](O)C[C@]2(C)[C@@]1(O)C(=O)CO` [dexamethasone, reference compound], the inhibition (in general, the percentage by which the read-out fell short of the control) at 0.1 mg/kg is 89% in assay [4] (read-out: inhibition of the airway hyperresponsiveness (ED100)) and 70% in assay [4] (read-out: inhibition of the airway hyperresponsiveness (ED150)). In addition, the “inhibition of the eosinophilic influx” value in assay [4] (dexamethasone inhalative) came out at 100%.
